Here are results for eight compounds from US12419865B2 (priority 2018, dated 2025).

In one data set the test system is LASV-p. Put plainly: microbe, parasite or virus in culture. Type of data set: cell-based, Lassa (LASV). To be noted: Vesicular stomatitis virus, Vero, read-out: LASV-p EC50.
The test system of a further data set is MACV-p. Put plainly: organism not typed. Type of data set: cell-based, Machupo (MACV). To be noted: Vero, read-out: MACV-p EC50.
In another data set the test system is JUNV-p. The data set can be described thus: organism not typed. Type of data set: cell-based, Junin (JUNV). To be noted: Vero, read-out: JUNV-p EC50.
A further data set concerns TCRV-p. Put plainly: organism not typed. Type of data set: cell-based. To be noted: read-out: TCRV-p EC50.
The test system of a further data set is GTOV-p. The data set can be described thus: organism not typed. Type of data set: cell-based, Guanarito (GTOV). To be noted: Vero, read-out: GTOV-p EC50.
The next data set deals with VSV-p. The data set can be described thus: microbe, parasite or virus in culture. Type of data set: cell-based. To be noted: Vesicular stomatitis virus, Vero, read-out: VSV-p EC50.
Data set [1] deals with native replicating Tacaribe (TCRV) virus. Put plainly: microbe, parasite or virus in culture. Type of data set: cell-based. The note with it: Mammarenavirus tacaribeense, Vero, 120 h, read-out: TCRV EC50.
The conditions of data set [2]: 1 h, pH 7.4.
For data set [3] the following is noted: 1 h, pH 7.4. The source holds these as a separate data set.
For data set [4] the following is noted: guinea pig, 1 h, pH 7.4.
The next data set can be described thus: in vitro. To be noted: African green monkey.
In data set [5] the test system is replicative LASV. Put plainly: microbe, parasite or virus in culture. Type of data set: cell-based, Lassa Virus. To be noted: Mammarenavirus lassaense.
The test system of data set [6] is replicative LASV. Put plainly: microbe, parasite or virus in culture. Type of data set: cell-based, Lassa Virus. To be noted: for EC90: Mammarenavirus lassaense.
For data set [7] the following is noted: 1 h, pH 7.4. This is another data set of the same source.
The conditions of data set [8]: 1 h, pH 7.4. The source holds these as a separate data set.
The conditions of data set [9]: 1 h, pH 7.4. The source holds these as a separate data set.
The target of another data set is hERG channel (Homo sapiens, UniProt Q12809). To be noted: pH 7.4.
The conditions of data set [10]: mouse, in vivo, 30 mg/kg.
For data set [11] the following is noted: mouse, in vivo, po.
The nature of the next data set: in vivo. To be noted: mouse.
The mark [12] stands for this setting: read-out: EC50 in the plaque assay format.
Where [13] appears, read: read-out: EC90 in the VYR assay format.

Read-outs that look alike come from different tables or passages of the source.

hERG channel, sequence (Q12809 whole entry): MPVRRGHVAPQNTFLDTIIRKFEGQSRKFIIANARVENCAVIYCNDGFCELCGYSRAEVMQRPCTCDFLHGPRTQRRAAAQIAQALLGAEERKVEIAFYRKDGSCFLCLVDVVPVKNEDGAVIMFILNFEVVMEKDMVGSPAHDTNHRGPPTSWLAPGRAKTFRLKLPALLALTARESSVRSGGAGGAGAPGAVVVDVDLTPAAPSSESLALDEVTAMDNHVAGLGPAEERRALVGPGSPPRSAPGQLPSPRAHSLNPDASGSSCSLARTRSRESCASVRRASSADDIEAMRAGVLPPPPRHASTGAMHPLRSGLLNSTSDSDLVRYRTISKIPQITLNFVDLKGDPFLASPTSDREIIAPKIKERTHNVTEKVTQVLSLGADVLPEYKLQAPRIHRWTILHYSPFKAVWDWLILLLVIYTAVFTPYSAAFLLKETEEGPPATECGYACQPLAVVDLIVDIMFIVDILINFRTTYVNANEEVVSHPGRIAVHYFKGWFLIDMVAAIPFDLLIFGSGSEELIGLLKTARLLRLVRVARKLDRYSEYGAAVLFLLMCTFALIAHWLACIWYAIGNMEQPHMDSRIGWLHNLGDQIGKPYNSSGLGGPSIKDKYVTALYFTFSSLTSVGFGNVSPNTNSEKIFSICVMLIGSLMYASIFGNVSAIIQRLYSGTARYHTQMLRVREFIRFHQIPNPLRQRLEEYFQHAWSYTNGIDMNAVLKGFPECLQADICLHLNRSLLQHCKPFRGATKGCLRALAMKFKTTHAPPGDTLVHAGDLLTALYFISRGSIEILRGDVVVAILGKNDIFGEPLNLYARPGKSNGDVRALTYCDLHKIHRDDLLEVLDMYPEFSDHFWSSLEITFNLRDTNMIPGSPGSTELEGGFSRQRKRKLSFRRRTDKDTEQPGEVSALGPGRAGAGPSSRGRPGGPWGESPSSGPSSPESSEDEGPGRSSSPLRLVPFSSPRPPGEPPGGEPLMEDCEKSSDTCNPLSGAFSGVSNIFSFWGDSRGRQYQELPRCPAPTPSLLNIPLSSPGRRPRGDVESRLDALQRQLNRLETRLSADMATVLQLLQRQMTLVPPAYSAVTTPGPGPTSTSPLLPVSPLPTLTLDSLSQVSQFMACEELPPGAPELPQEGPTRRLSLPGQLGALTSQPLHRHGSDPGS

As usually defined, the EC50 is the concentration that produces a half-maximal response. Turning to `Cc1cc2ncc(-c3ccc(OC(C)(C)C)cc3)n2cc1-c1ccc(C(C)(C)O)cc1` [Example B6, 2-(4-(3-(4-(tert-butoxy)phenyl)-7-methylimidazo[1,2-a]pyridin-6-yl)phenyl)propan-2-ol], the EC50 is 0.7 nM in the data set with LASV-p; 0.13 nM in the data set on MACV-p; 0.22 nM in the data set with JUNV-p; 0.16 nM in the data set on TCRV-p (Vero); 0.1 nM in the data set on TCRV-p; 0.11 nM in the data set on GTOV-p. Besides, the EC50 is more than 10000 nM with VSV-p and 0.95 nM in [1]. The “Percent parent compound remaining at 60 minutes in liver microsomes, Mouse” value (from here on “Percent parent compound remaining … Mouse”) in data set [2] is 81.7%. In addition, the “Percent parent compound remaining at 60 minutes in liver microsomes, Human” value (“Percent parent compound remaining … Human” below) in data set [3] was 81.5%. For the same compound, the “Percent parent compound remaining at 60 minutes in liver microsomes, Guinea” value (shortened to “Percent parent compound remaining … Guinea”) in data set [4] is given as 61.5%. This compound also came in with a CC50 in the data set “in vitro” of 4320 nM.

As a reminder, the EC90 is the point of the concentration-response curve where the effect stands at 90%. A word on the % Inhibition: it is the change of the read-out against control, counted positive when it falls. For `Cc1cc2ncc(-c3ccc(C(C)(C)O)cc3)n2cc1-c1ccc(OC(C)C)cc1` [Example B8, 2-(4-(6-(4-isopropoxyphenyl)-7-methylimidazo[1,2-a]pyridin-3-yl)phenyl)propan-2-ol], the EC50 in the data set with LASV-p worked out at 2.91 nM; with MACV-p, 0.61 nM; in the data set on JUNV-p, 0.76 nM; in the data set with TCRV-p (Vero), 0.32 nM; in the data set with TCRV-p, 0.32 nM; in the data set on GTOV-p, 0.94 nM. Further, the EC50 with VSV-p was more than 10000 nM; in [1], 2.16 nM; in the data set with replicative LASV [5] (setting [12]), 1 to 3 nM; in the data set on replicative LASV [5] (read-out: Plaque Assay EC50) it was less than 3 nM. The Sl90 in the data set with replicative LASV [6] is reported as >9,000. The EC90 with replicative LASV [6] (Vero, read-out: VYR Assay EC90) was less than 3 nM; in the data set with replicative LASV [6] (setting [13]) it was 1 to 3 nM. Moreover, the “Percent parent compound remaining … Mouse” value in data set [2] was 77.5%. Moreover, the “Percent parent compound remaining at 60 minutes in liver microsomes, Monkey” value in data set [7] was 33.7%. Besides, in data set [8], the “Percent parent compound remaining at 60 minutes in liver microsomes, Dog” value was determined as 77.57%. Also, the “Percent parent compound remaining … Human” value in data set [3] worked out at 87.6%. Further, in data set [4], the “Percent parent compound remaining … Guinea” value was 67.7%. The “Percent parent compound remaining at 60 minutes in liver microsomes, Rat” value in data set [9] is recorded as 93%. At hERG channel, the “% Inhibition at 3 uM” value was less than 10%. The compound also had a CC50 in “in vitro” of 27800 nM.

Take `Cc1cc2ncn(-c3ccc(OC(C)(C)C)cc3)c2cc1-c1ccc(OC(C)C)cc1` [Example A2, 1-(4-(tert-butoxy)phenyl)-6-(4-isopropoxyphenyl)-5-methyl-1H-benzo[d]imidazole]: the EC50 with LASV-p was found to be 0.38 nM; in the data set with MACV-p it was 0.14 nM; in the data set with JUNV-p, 0.15 nM; with TCRV-p (Vero), 0.15 nM; in the data set with TCRV-p, 0.12 nM; in the data set with GTOV-p, 0.05 nM. Besides, the EC50 was more than 10000 nM in the data set with VSV-p, 0.33 nM in [1], 1 to 3 nM in the data set with replicative LASV [5] (setting [12]) and less than 3 nM in the data set on replicative LASV [5] (read-out: Plaque Assay EC50). In the data set on replicative LASV [6], the Sl90 was >13,000. Also, the EC90 in the data set with replicative LASV [6] (Vero, read-out: VYR Assay EC90) was less than 1 nM; in the data set with replicative LASV [6] (setting [13]), 1 to 3 nM. The “Percent parent compound remaining … Mouse” value in data set [2] amounted to 93.9%. Also, the “Percent parent compound remaining at 60 minutes in liver microsomes, Monkey” value in data set [7] is listed as 53%. Also, in data set [8], the “Percent parent compound remaining at 60 minutes in liver microsomes, Dog” value was more than 95%. For the same compound, in data set [3], the “Percent parent compound remaining … Human” value is 95%. For the same compound, the “Percent parent compound remaining … Guinea” value in data set [4] is more than 95%. Moreover, the “Percent parent compound remaining at 60 minutes in liver microsomes, Rat” value in [9] is listed as more than 95%. Further, in “in vitro”, the CC50 amounted to 7300 nM.

`Cc1cc2ncn(-c3ccc(OC(C)C)cc3)c2cc1-c1ccc(C(C)(C)O)cc1` [Example A3, 2-(4-(1-(4-isopropoxyphenyl)-5-methyl-1H-benzo[d]imidazol-6-yl)phenyl)propan-2-ol]: the EC50 in the data set on LASV-p is 0.75 nM; with MACV-p, 0.17 nM; with JUNV-p, 0.4 nM; with TCRV-p (Vero) it was 0.24 nM; in the data set with TCRV-p, 0.21 nM; in the data set on VSV-p, more than 10000 nM. Also, the EC50 in [1] worked out at 0.87 nM. Also, the “Percent parent compound remaining … Mouse” value in [2] turned out to be 25.4%. Also, in data set [3], the “Percent parent compound remaining … Human” value worked out at 89.9%. Also, in data set [4], the “Percent parent compound remaining … Guinea” value was found to be 67.6%. The compound further displayed a CC50 in the data set “in vitro” of 4500 nM.

On to `Cc1cc2ncc(-c3ccc(OC(C)C)cc3)n2cc1-c1ccc(C(C)(C)O)cc1` [Example B5, 2-(4-(3-(4-isopropoxyphenyl)-7-methylimidazo[1,2-a]pyridin-6-yl)phenyl)propan-2-ol], for which the EC50 in the data set with LASV-p is 0.53 nM; with MACV-p, 0.16 nM; in the data set on JUNV-p, 0.18 nM; with TCRV-p (Vero), 0.16 nM; in the data set on TCRV-p, 0.1 nM; in the data set on VSV-p, more than 10000 nM. Further, the EC50 in data set [1] worked out at 0.88 nM. Further, the “Percent parent compound remaining … Mouse” value in data set [2] is on record as 16.4%. Also, the “Percent parent compound remaining … Human” value in data set [3] is on record as 86.7%. For the same compound, in data set [4], the “Percent parent compound remaining … Guinea” value turned out to be 7.4%. This compound also registered a CC50 in “in vitro” of 3870 nM.

With `CC(C)Oc1ccc(-n2nnc3ccc(-c4ccc(C(C)(C)O)cc4)cc32)cc1` [Example C16, 2-(4-(1-(4-isopropoxyphenyl)-1H-benzo[d][1,2,3]triazol-6-yl)phenyl)propan-2-ol], the EC50 with LASV-p is 3.02 nM; with MACV-p it was 1.72 nM; with JUNV-p, 0.45 nM; with TCRV-p (Vero), 3.67 nM; in the data set on VSV-p it was more than 10000 nM. The “Percent parent compound remaining … Mouse” value in data set [2] was found to be 57.4%. For the same compound, in data set [3], the “Percent parent compound remaining … Human” value was 72.3%. Further, the “Percent parent compound remaining … Guinea” value in data set [4] came to 61.9%. In the data set “in vitro”, this compound came in with a CC50 of 4120 nM.

With `CC(C)Oc1ccc(-c2cc3c(cc2Cl)nnn3-c2ccc(OC(C)C)cc2)cc1` [Example C11, 5-chloro-1,6-bis(4-isopropoxyphenyl)-1H-benzo[d][1,2,3]triazole], the EC50 is 2.29 nM in the data set with LASV-p; 0.19 nM with MACV-p; 0.1 nM in the data set with JUNV-p; 0.77 nM in the data set with TCRV-p (Vero); 0.61 nM in the data set with TCRV-p; more than 10000 nM in the data set on VSV-p. Also, the EC50 in data set [1] was found to be 0.84 nM. Also, the “Percent parent compound remaining … Mouse” value in data set [2] is reported as more than 95%. The “Percent parent compound remaining … Human” value in data set [3] was more than 95%. In addition, the “Percent parent compound remaining … Guinea” value in data set [4] is more than 95%. The “% Inhibition at 3 uM” value at hERG channel is recorded as less than 10%. The compound also displayed a CC50 in the data set “in vitro” of more than 100000 nM.

As usually defined, the Vd is a proportionality between amount in the body and measured concentration, not a real space. The clearance is the rate of elimination divided by the concentration. The AUC(0-t) is exposure summed from dosing to a finite time, without extrapolation to infinity. Broadly, the bioavailability is dose-corrected exposure relative to a reference, in per cent. In the case of `Cc1cc2ncc(-c3ccc(OC(C)(C)C)cc3)n2cc1-c1ccc(OC(C)C)cc1` [Example B7, 3-(4-(tert-butoxy)phenyl)-6-(4-isopropoxyphenyl)-7-methylimidazo[1,2-a]pyridine], the EC50 in the data set with LASV-p came out at 0.9 nM; in the data set with MACV-p it was 0.42 nM; with JUNV-p it was 0.31 nM; in the data set with TCRV-p (Vero) it was 0.16 nM; with TCRV-p, 0.2 nM; in the data set on GTOV-p, 0.12 nM. In addition, the EC50 with VSV-p is more than 10000 nM; in data set [1], 0.74 nM; with replicative LASV [5] (setting [12]), 1 to 3 nM; in the data set on replicative LASV [5] (read-out: Plaque Assay EC50), less than 3 nM. For the same compound, the Sl90 in the data set on replicative LASV [6] is recorded as >11,000. The EC90 in the data set on replicative LASV [6] (Vero, read-out: VYR Assay EC90) is less than 1 nM; in the data set with replicative LASV [6] (setting [13]), 1 to 3 nM. For the same compound, at hERG channel, the “% Inhibition at 3 uM” value is given as less than 10%. In data set [10], the “Oral C-Max” value came out at 5.5 µg/mL. The “Oral T-Max” value in data set [10] came out at 2 h. The “24 hr liver concentration” value in data set [11] came out at 63.4 ug/g liver. Also, the “24 hr plasma concentration” value in [11] worked out at 9.1 µg/mL. Also, in the data set “in vivo”, the Vd is 35.7 L/kg. In the data set “in vivo”, the clearance came to 13.7 mL/min/kg. In addition, the AUC(0-t) in “in vivo” (po, 30 mg/kg) amounted to 70400 ng·h/mL. Besides, the bioavailability in the data set “in vivo” (po, 30 mg/kg) was determined as 30%. In the data set “in vitro”, this compound had a CC50 of 8140 nM.
